Data taken from US8895761B2, “4-phenylpyrane-3,5-diones, 4-phenylthiopyrane-3,5-diones and 2-phenylcyclohexane-1,3,5-triones as herbicides” (Syngenta Limited, priority 2007, dated 2014).

Legend:
Type in all cases: in vivo
Avena fatua (AVEFA) [1] = test: Post-emergence herbicidal glasshouse test, Avena fatua; settings: Avena fatua, 312 h, rate 250 g/ha, evaluated after 13 days, scale 100 = total damage to plant, 0 = no damage
Outline: (§1)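 Visual damage scores (0 = undamaged, top = plant totally killed) were taken 13 days after spraying. Treatment was given one day after sowing or at day 8 of cultivation, under 24/16° C. glasshouse conditions.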

Lolium perenne (LOLPE) [2] = test: Post-emergence herbicidal glasshouse test, Lolium perenne; settings: 312 h, rate 250 g/ha, evaluated after 13 days, scale 100 = total damage to plant, 0 = no damage
Outline: as §1

Avena fatua (AVEFA) [3] = test: Pre-emergence herbicidal glasshouse test, Avena fatua; settings: Avena fatua, 312 h, rate 250 g/ha, evaluated after 13 days, scale 100 = total damage to plant, 0 = no damage
Outline: as §1

Lolium perenne (LOLPE) [4] = test: Pre-emergence herbicidal glasshouse test, Lolium perenne; settings: 312 h, rate 250 g/ha, evaluated after 13 days, scale 100 = total damage to plant, 0 = no damage
Outline: as §1

[5] = system: Echinochloa crus-galli (ECHCG); test: Pre-emergence herbicidal glasshouse test, Echinochloa crus-galli; settings: Echinochloa crus-galli, 312 h, rate 250 g/ha, evaluated after 13 days, scale 100 = total damage to plant, 0 = no damage
Outline: as §1

[6] = system: Echinochloa crus-galli (ECHCG); test: Post-emergence herbicidal glasshouse test, Echinochloa crus-galli; settings: Echinochloa crus-galli, 312 h, rate 250 g/ha, evaluated after 13 days, scale 100 = total damage to plant, 0 = no damage
Outline: as §1

[7] = system: Alopecurus myosuroides (ALOMY); test: Post-emergence herbicidal glasshouse test, Alopecurus myosuroides; settings: Alopecurus myosuroides, 312 h, rate 250 g/ha, evaluated after 13 days, scale 100 = total damage to plant, 0 = no damage
Outline: as §1

[8] = system: Alopecurus myosuroides (ALOMY); test: Pre-emergence herbicidal glasshouse test, Alopecurus myosuroides; settings: Alopecurus myosuroides, 312 h, rate 250 g/ha, evaluated after 13 days, scale 100 = total damage to plant, 0 = no damage
Outline: as §1

Structure (SMILES) | pest or weed control at 250 g/ha (Avena fatua (AVEFA) [1]) | pest or weed control at 250 g/ha (Lolium perenne (LOLPE) [2]) | pest or weed control at 250 g/ha (Avena fatua (AVEFA) [3]) | pest or weed control at 250 g/ha (Lolium perenne (LOLPE) [4]) | pest or weed control at 250 g/ha [5] | pest or weed control at 250 g/ha [6] | pest or weed control at 250 g/ha [7] | pest or weed control at 250 g/ha [8]
CCc1cc(-c2ccc(F)c(F)c2)ccc1C1=C(O)C2(CCCC2)OC(C)(C)C1=O [Compound A-125] | 10% | 30% | 0% | 0% | 0% | 70% | 50% | 0%
CCc1cc(-c2cc(F)c(F)c(F)c2)ccc1C1=C(O)C2(CCCC2)OC(C)(C)C1=O [Compound A-126] | 20% | 40% | 0% | 10% | 10% | 70% | 40% | 10%
CCc1cc(-c2ccc(F)c(OC)c2)ccc1C1=C(O)C(C)(CC)OC(C)(CC)C1=O (stereo not shown) [Compound A-128] | 70% | 60% | 0% | 20% | 40% | 80% | 60% | 10%
CCc1cc(-c2ccc(F)c(F)c2)ccc1C1=C(O)C(C)(CC)OC(C)(CC)C1=O (stereo not shown) [Compound A-129] | 70% | 80% | 10% | 30% | 90% | 90% | 90% | 30%
CCc1cc(-c2cc(F)c(F)c(F)c2)ccc1C1=C(O)C(C)(CC)OC(C)(CC)C1=O (stereo not shown) [Compound A-130] | 70% | 60% | 10% | 60% | 40% | 90% | 90% | 50%
CCc1cc(-c2cc(F)c(F)cc2F)ccc1C1=C(O)C(C)(CC)OC(C)(CC)C1=O (stereo not shown) [Compound A-132] | 0% | 50% | 0% | 20% | 10% | 80% | 60% | 20%
CCc1cc(-c2ccc(F)c(F)c2F)ccc1C1=C(O)C(C)(CC)OC(C)(CC)C1=O (stereo not shown) [Compound A-133] | 20% | 50% | 0% | 30% | 0% | 60% | 60% | 30%
CC1(C)OC(C)(C)C(O)=C(c2ccc(-c3ccc(F)cc3)cc2Cl)C1=O [Compound A-134] | 20% | 50% | 0% | 30% | 80% | 100% | 70% | 40%
CC1(C)OC(C)(C)C(O)=C(c2ccc(-c3ccc(F)cc3)cc2OC(F)(F)F)C1=O [Compound A-135] | 10% | 60% | 10% | 10% | 30% | 100% | 60% | 30%
CCc1cc(-c2ccc(F)c(OC)c2)ccc1C1=C(O)C(C)(C)SC(C)(C)C1=O [Compound B-4] | 80% | 50% | 0% | 0% | 0% | 60% | 40% | 0%
CCc1cc(-c2ccc(F)c(F)c2)ccc1C1=C(O)C(C)(C)SC(C)(C)C1=O [Compound B-5] | 70% | 60% | 20% | 30% | 0% | 60% | 70% | 50%
CCc1cc(-c2cc(F)c(F)c(F)c2)ccc1C1=C(O)C(C)(C)SC(C)(C)C1=O [Compound B-6] | 90% | 80% | 0% | 50% | 0% | 80% | 90% | 50%
CCc1cc(-c2ccc(F)c(F)c2F)ccc1C1=C(O)C(C)(C)SC(C)(C)C1=O [Compound B-9] | 80% | 60% | 0% | 10% | 0% | 40% | 60% | 10%
CCc1cc(-c2ccc(F)c(F)c2)ccc1C1=C(O)C(C)(C)[S+]([O-])C(C)(C)C1=O (stereo not shown) [Compound B-11] | 70% | 60% | 20% | 40% | 0% | 40% | 60% | 50%
CCc1cc(-c2ccc(F)c(OC)c2)ccc1C1=C(O)C(C)(C)S(=O)(=O)C(C)(C)C1=O [Compound B-16] | 80% | 60% | 30% | 40% | 40% | 80% | 50% | 20%
CCc1cc(-c2ccc(F)c(F)c2)ccc1C1=C(O)C(C)(C)S(=O)(=O)C(C)(C)C1=O [Compound B-17] | 70% | 70% | 10% | 50% | 10% | 50% | 80% | 50%
CCc1cc(-c2cc(F)c(F)c(F)c2)ccc1C1=C(O)C(C)(C)S(=O)(=O)C(C)(C)C1=O [Compound B-18] | 90% | 80% | 30% | 50% | 30% | 80% | 70% | 30%
CCc1cc(-c2ccc(F)c(OC)c2)ccc1C1=C(O)C(C)(C)C(=O)C(C)(C)C1=O [Compound C-3] | 50% | 60% | 0% | 10% | 10% | 70% | 30% | 10%
CCc1cc(-c2ccc(F)c(F)c2)ccc1C1=C(O)C(C)(C)C(=O)C(C)(C)C1=O [Compound C-4] | 30% | 80% | 0% | 20% | 0% | 70% | 80% | 20%
CCc1cc(-c2cc(F)c(F)c(F)c2)ccc1C1=C(O)C(C)(C)C(=O)C(C)(C)C1=O [Compound C-5] | 90% | 70% | 20% | 40% | 0% | 100% | 100% | 30%
CCc1cc(-c2cc(Cl)ccc2OC)ccc1C1=C(O)C(C)(C)C(=O)C(C)(C)C1=O [Compound C-6] | 10% | 20% | 10% | 70% | 0% | 50% | 20% | 40%
CCc1cc(-c2cc(F)c(F)cc2F)ccc1C1=C(O)C(C)(C)C(=O)C(C)(C)C1=O [Compound C-7] | 10% | 60% | 0% | 20% | 0% | 40% | 40% | 30%
CCc1cc(-c2ccc(F)c(F)c2F)ccc1C1=C(O)C(C)(C)C(=O)C(C)(C)C1=O [Compound C-8] | 10% | 60% | 0% | 30% | 30% | 60% | 60% | 10%
